Results published in publication PMC10256202, “Allosteric regulation of Senecavirus A 3C^pro proteolytic activity by an endogenous phospholipid” (PLOS Pathogens, 2023).

Molecular target: T1, SVA 3C^pro (Seneca Valley virus USA/SSV-001, UniProt Q155Z9)
T1 construct: full-length mature 3C cut from the genome polyprotein; codon-optimized, E. coli BL21(DE3); N-terminal His6-SUMO tag removed by ULP1 (lipid strips: His-tagged protein)
Experiment: CL-specific ELISA of lipid co-purified with the protein
Details: endogenous E. coli lipid extracted by heating; lipid-binding (allosteric) site

T1 sequence (Q155Z9 1509-1719): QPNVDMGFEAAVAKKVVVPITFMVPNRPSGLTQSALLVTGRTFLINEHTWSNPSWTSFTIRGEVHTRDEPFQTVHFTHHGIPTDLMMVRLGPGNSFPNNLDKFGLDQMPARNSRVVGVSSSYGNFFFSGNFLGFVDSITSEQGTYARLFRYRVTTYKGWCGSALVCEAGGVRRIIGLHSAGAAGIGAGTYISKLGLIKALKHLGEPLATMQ

## cardiolipin [CL]
  lipid content: ~ 24.2 μg/L
